Laboratory results reported in paper PMC12203311, “Design, synthesis, in silico and in vitro evaluation of pyrrole–indole hybrids as dual tubulin and aromatase inhibitors with potent anticancer activities” (RSC Advances, 2025).

Key:
HCT-116 = assay: NCI60 five-dose screen; type: cell-based; settings: Homo sapiens, HCT-116, colon cancer; for CC50: read-out: LC50 (the source's name)
UO-31 = assay: NCI60 five-dose screen; type: cell-based; settings: Homo sapiens, UO-31, renal cancer; for CC50: read-out: LC50 (the source's name)
[1] = Cytotoxicity MTT assay, L929; type: cell-based, mouse; settings: mouse, L929 fibroblast cells; MTT, 48 hours
In short: (§1)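 Cells in DMEM with 10% FBS and penicillin/streptomycin (37 °C, 5% CO2) were seeded at 10 000 per well, grown overnight, then exposed to compounds for 48 hours. MTT (0.5 mg mL^−1) was added for 3 hours, formazan dissolved in DMSO, and absorbance read at 570 nm; viability was expressed against DMSO vehicle.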

[2] = test system: L929 normal mouse fibroblast cell line; assay: Cytotoxicity MTT assay, L929; type: cell-based; settings: IC50 (L929)/IC50 (T47D)
In short: as §1

KM12 = assay: NCI60 five-dose screen; type: cell-based; settings: Homo sapiens, KM12, colon cancer; for CC50: read-out: LC50 (the source's name)
Human CYP19 (aromatase) = target: T1, Human CYP19 (aromatase) (Homo sapiens, UniProt P11511); assay: Aromatase inhibition assay (DBF fluorometric substrate); type: biochemical; settings: active defined as IC50 < 12.5 µM
T1 construct: purchased GENTEST, Woburn, MA 456260; host or cells: baculovirus/insect cells
T1 sequence (P11511 1-503): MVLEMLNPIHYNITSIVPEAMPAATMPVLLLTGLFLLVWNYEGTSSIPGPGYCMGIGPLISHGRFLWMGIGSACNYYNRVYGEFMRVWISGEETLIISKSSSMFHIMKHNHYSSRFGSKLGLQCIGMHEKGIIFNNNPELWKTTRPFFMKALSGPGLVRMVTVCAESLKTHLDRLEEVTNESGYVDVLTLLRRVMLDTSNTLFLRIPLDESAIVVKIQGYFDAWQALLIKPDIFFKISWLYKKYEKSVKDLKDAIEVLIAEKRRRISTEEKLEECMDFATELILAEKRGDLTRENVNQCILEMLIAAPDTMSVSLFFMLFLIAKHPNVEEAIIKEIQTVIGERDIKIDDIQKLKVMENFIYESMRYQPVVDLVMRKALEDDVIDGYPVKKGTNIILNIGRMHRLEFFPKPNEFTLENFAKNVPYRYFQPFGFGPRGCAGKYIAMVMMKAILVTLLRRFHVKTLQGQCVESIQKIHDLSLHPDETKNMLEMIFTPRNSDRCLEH
In short: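 Supersomes expressing human CYP19 plus oxidoreductase (baculovirus/insect cell) with fluorometric substrate DBF; cofactor mixture pre-incubated 10 min at 37 °C, reaction run 30 min at 37 °C, stopped with NaOH. Fluorescence read at ex 490/em 530 nm.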

M14 = assay: NCI60 five-dose screen; type: cell-based; settings: Homo sapiens, M14, melanoma; for CC50: read-out: LC50 (the source's name)
HCC-2998 = assay: NCI60 five-dose screen; type: cell-based; settings: Homo sapiens, HCC-2998, colon cancer; for CC50: read-out: LC50 (the source's name)
NCI-H322M = assay: NCI60 five-dose screen; type: cell-based; settings: Homo sapiens, NSC lung cancer; for CC50: read-out: LC50 (the source's name)
MOLT-4 = assay: NCI60 five-dose screen; type: cell-based; settings: Homo sapiens, MOLT-4, leukemia; for CC50: read-out: LC50 (the source's name)
HS 578T = assay: NCI60 five-dose screen; type: cell-based; settings: Homo sapiens, breast cancer; for CC50: read-out: LC50 (the source's name)
NCI-H226 = assay: NCI60 five-dose screen; type: cell-based; settings: Homo sapiens, NCI-H226, NSC lung cancer; for CC50: read-out: LC50 (the source's name)
MDA-MB-435 = assay: NCI60 five-dose screen; type: cell-based, human; settings: Homo sapiens; for CC50: MDA-MB-435, MDA-MB-435, melanoma, read-out: LC50 (the source's name); for GI50: MDA-MB-435, melanoma
SF-268 = assay: NCI60 five-dose screen; type: cell-based; settings: Homo sapiens, SF-268, CNS cancer; for CC50: read-out: LC50 (the source's name)
OVCAR-5 = assay: NCI60 five-dose screen; type: cell-based; settings: Homo sapiens, OVCAR-5, ovarian cancer; for CC50: read-out: LC50 (the source's name)
SW-620 = assay: NCI60 five-dose screen; type: cell-based; settings: Homo sapiens, SW-620, colon cancer; for CC50: read-out: LC50 (the source's name)
786-0 = assay: NCI60 five-dose screen; type: cell-based; settings: Homo sapiens, 786-0, renal cancer; for CC50: read-out: LC50 (the source's name)
A498 = assay: NCI60 five-dose screen; type: cell-based; settings: Homo sapiens, A498, renal cancer; for CC50: read-out: LC50 (the source's name)
T-47D = assay: NCI60 five-dose screen; type: cell-based; settings: Homo sapiens, T47D, breast cancer; for CC50: read-out: LC50 (the source's name)
MDA-MB-468 = assay: NCI60 five-dose screen; type: cell-based; settings: Homo sapiens, MDA-MB-468, breast cancer; for CC50: read-out: LC50 (the source's name)
RXF 393 = assay: NCI60 five-dose screen; type: cell-based; settings: Homo sapiens, RXF 393, renal cancer; for CC50: read-out: LC50 (the source's name)
[3] = test system: T47D breast cancer cell line; assay: Cytotoxicity MTT assay, T47D; type: cell-based, human; settings: Homo sapiens, T47D; MTT, 48 hours
In short: as §1

Compound	GI50 (HCT-116) [µM]	CC50 (HCT-116) [µM]	GI50 (UO-31) [µM]	CC50 (UO-31) [µM]	IC50 at 48 h [1] [µM]	Selectivity index (SI) [2]	GI50 (KM12) [µM]	CC50 (KM12) [µM]	IC50 (Human CYP19 (aromatase)) [µM]	GI50 (M14) [µM]	CC50 (M14) [µM]	GI50 (HCC-2998) [µM]	CC50 (HCC-2998) [µM]	GI50 (NCI-H322M) [µM]	CC50 (NCI-H322M) [µM]	GI50 (MOLT-4) [µM]	CC50 (MOLT-4) [µM]	GI50 (HS 578T) [µM]	CC50 (HS 578T) [µM]	GI50 (NCI-H226) [µM]	further results
O=C(N/N=C/c1cc(Br)c[nH]1)c1[nH]c2ccc(Br)cc2c1-c1ccccc1 [Derivative 3e, (E)-5-Bromo-N′-((4-bromo-1H-pyrrol-2-yl)methylene)-3-phenyl-1H-indole-2-carbohydrazide]	0.242	85	0.618	28.1	22.3 ± 11.9	9.29	0.301	16.3	4 ± 1	0.27	20.2	0.296	15.6	0.578	38.8	0.375	> 100	0.34	> 100	0.382	CC50 (NCI-H226): 29.9 µM; CC50 (MDA-MB-435): 24.3 µM; GI50 (MDA-MB-435): 0.207 µM; GI50 (SF-268): 0.529 µM; CC50 (SF-268): 52.9 µM; GI50 (OVCAR-5): 0.346 µM; CC50 (OVCAR-5): 26.5 µM; GI50 (SW-620): 0.405 µM; CC50 (SW-620): 59.4 µM; GI50 (786-0): 0.727 µM; CC50 (786-0): 55.9 µM; GI50 (A498): 5.47 µM; CC50 (A498): 44.5 µM; GI50 (T-47D): 1.4 µM; CC50 (T-47D): 82.5 µM; GI50 (MDA-MB-468): 0.231 µM; CC50 (MDA-MB-468): 13 µM; GI50 (RXF 393): 0.497 µM; CC50 (RXF 393): 37.9 µM; IC50 [3]: 2.4 ± 1.4 µM
O=C(N/N=C/c1cc(Br)c(Br)[nH]1)c1[nH]c2ccc(Br)cc2c1-c1ccccc1 [Derivative 3f, (E)-5-Bromo-N′-((4,5-dibromo-1H-pyrrol-2-yl)methylene)-3-phenyl-1H-indole-2-carbohydrazide]	3.24	> 100	1.94	38.5	47.9 ± 0.5	2.51	2.46	35.3	1.5 ± 0.3	2.81	66.1	2.3	24	3.73	62.8	3.38	> 100	1.82	> 100	2.28	CC50 (NCI-H226): 32.5 µM; CC50 (MDA-MB-435): 19.6 µM; GI50 (MDA-MB-435): 1.01 µM; GI50 (SF-268): 2.57 µM; CC50 (SF-268): 65.3 µM; GI50 (OVCAR-5): 3.6 µM; CC50 (OVCAR-5): 40.2 µM; GI50 (SW-620): 2.96 µM; CC50 (SW-620): 41.9 µM; GI50 (786-0): 4.91 µM; CC50 (786-0): 64.1 µM; GI50 (A498): 11.1 µM; CC50 (A498): 49.4 µM; GI50 (T-47D): 3.84 µM; CC50 (T-47D): 74.3 µM; GI50 (MDA-MB-468): 2.09 µM; CC50 (MDA-MB-468): 22.8 µM; GI50 (RXF 393): 1.55 µM; CC50 (RXF 393): 34.3 µM; IC50 [3]: 19.1 ± 5.4 µM
O=C(N/N=C/c1[nH]ccc1Cl)c1[nH]c2ccc(Br)cc2c1-c1ccccc1 [Derivative 3g, (E)-5-Bromo-N′-((3-chloro-1H-pyrrol-2-yl)methylene)-3-phenyl-1H-indole-2-carbohydrazide]	0.467	79.9	0.577	35.7	20.1 ± 10.3	2.45	0.488	34.6	2.6 ± 0.5	0.689	45.4	1.23	28.6	3.14	48.8	1.71	> 100	0.59	> 100	1.44	CC50 (NCI-H226): 32.1 µM; CC50 (MDA-MB-435): 25.5 µM; GI50 (MDA-MB-435): 0.222 µM; GI50 (SF-268): 1.76 µM; CC50 (SF-268): 53 µM; GI50 (OVCAR-5): 1.1 µM; CC50 (OVCAR-5): 35.7 µM; GI50 (SW-620): 0.499 µM; CC50 (SW-620): 50.2 µM; GI50 (786-0): 2.58 µM; CC50 (786-0): 50.2 µM; GI50 (A498): 10.6 µM; CC50 (A498): 49.3 µM; GI50 (T-47D): 2.5 µM; CC50 (T-47D): 81.9 µM; GI50 (MDA-MB-468): 0.297 µM; CC50 (MDA-MB-468): 24.7 µM; GI50 (RXF 393): 0.346 µM; CC50 (RXF 393): 42.1 µM; IC50 [3]: 8.2 ± 1.8 µM
